The values that follow come from US8802661B2, “C-28 amides of modified C-3 betulinic acid derivatives as HIV maturation inhibitors” (priority 2010, dated 2014).

Usually EC50 stands for the concentration that produces a half-maximal response.

Molecules are shown by their SMILES. Where only a bound is given, the exact number is not on record here.

For one test, the system named is recombinant NL4-3 virus (Renilla luciferase in nef, Gag P373S). Briefly: HIV Cell Culture Assay (luciferase reporter virus in MT-2 cells). It is filed as cell-based. To be noted: NL43. The method, boiled down:
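Cells grown in serum-supplemented RPMI were exposed to graded inhibitor concentrations during a 4-5 day infection. Antiviral effect was then derived from luminescence after adding a combined lysis and dual-luciferase substrate mixture to each well.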
As for `C=C(C)[C@@H]1CC[C@]2(C(=O)N3CCCCC3)CC[C@]3(C)[C@H](CC[C@@H]4[C@@]5(C)CC=C(c6ccc(C(=O)O)cc6)C(C)(C)[C@@H]5CC[C@]43C)[C@@H]12` [Example 19, 4-((1R,3aS,5aR,5bR,7aR,11aS,11bR,13aR,13bR)-5a,5b,8,8,11a-pentamethyl-3a-(piperidine-1-carbonyl)-1-(prop-1-en-2-yl)-2,3,3a,4,5,5a,5b,6,7,7a,8,11,11a,11b,12,13,13a,13b-octadecahydro-1H-cyclopenta[a]chrysen-9-yl)benzoic acid], the concentration for a half-maximal effect (EC50) came to 370 nM.

For the compound `C=C(C)[C@@H]1CC[C@]2(C(=O)NCCS(=O)(=O)O)CC[C@]3(C)[C@H](CC[C@@H]4[C@@]5(C)CC=C(c6ccc(C(=O)O)cc6)C(C)(C)[C@@H]5CC[C@]43C)[C@@H]12` [Example 82, sodium 4-((1R,3aS,5aR,5bR,7aR,11aS,11bR,13aR,13bR)-5a,5b,8,8,11a-pentamethyl-1-(prop-1-en-2-yl)-3a-(2-sulfonatoethylcarbamoyl)-2,3,3a,4,5,5a,5b,6,7,7a,8,11,11a,11b,12,13,13a,13b-octadecahydro-1H-cyclopenta[a]chrysen-9-yl)benzoate], the 50% effective concentration (EC50) was 1230 nM.

Still in this test, the particulars now being: NL43, read-out: EC50 Group.
As to `C=C(C)[C@@H]1CC[C@]2(C(=O)NCc3nccs3)CC[C@]3(C)[C@H](CC[C@@H]4[C@@]5(C)CC=C(c6ccc(C(=O)O)cc6)C(C)(C)[C@@H]5CC[C@]43C)[C@@H]12` [Example 41, 4-((1R,3aS,5aR,5bR,7aR,11aS,11bR,13aR,13bR)-5a,5b,8,8,11a-pentamethyl-1-(prop-1-en-2-yl)-3a-(thiazol-2-ylmethylcarbamoyl)-2,3,3a,4,5,5a,5b,6,7,7a,8,11,11a,11b,12,13,13a,13b-octadecahydro-1H-cyclopenta[a]chrysen-9-yl)benzoic acid], the EC50 is under 100 nM.

On to `C=C(C)[C@@H]1CC[C@]2(C(=O)NS(C)(=O)=O)CC[C@]3(C)[C@H](CC[C@@H]4[C@@]5(C)CC=C(c6ccc(C(=O)O)cc6)C(C)(C)[C@@H]5CC[C@]43C)[C@@H]12` [Example 8, 4-((1R,3aS,5aR,5bR,7aR,11aS,11bR,13aR,13bR)-5a,5b,8,8,11a-pentamethyl-3a-(methylsulfonylcarbamoyl)-1-(prop-1-en-2-yl)-2,3,3a,4,5,5a,5b,6,7,7a,8,11,11a,11b,12,13,13a,13b-octadecahydro-1H-cyclopenta[a]chrysen-9-yl)benzoic acid], for which the EC50 is under 100 nM.

As for `C=C(C)[C@@H]1CC[C@]2(C(=O)NCC(O)CO)CC[C@]3(C)[C@H](CC[C@@H]4[C@@]5(C)CC=C(c6ccc(C(=O)O)cc6)C(C)(C)[C@@H]5CC[C@]43C)[C@@H]12` (stereo partly drawn) [Example 71, 4-((1R,3aS,5aR,5bR,7aR,11aS,11bR,13aR,13bR)-3a-(2,3-dihydroxypropylcarbamoyl)-5a,5b,8,8,11a-pentamethyl-1-(prop-1-en-2-yl)-2,3,3a,4,5,5a,5b,6,7,7a,8,11,11a,11b,12,13,13a,13b-octadecahydro-1H-cyclopenta[a]chrysen-9-yl)benzoic acid], the EC50 is under 100 nM.

`C=C(C)[C@@H]1CC[C@]2(C(=O)NCCc3ccccn3)CC[C@]3(C)[C@H](CC[C@@H]4[C@@]5(C)CC=C(c6ccc(C(=O)O)cc6)C(C)(C)[C@@H]5CC[C@]43C)[C@@H]12` [Example 1, 4-((1R,3aS,5aR,5bR,7aR,11aS,11bR,13aR,13bR)-5a,5b,8,8,11a-pentamethyl-1-(prop-1-en-2-yl)-3a-(2-(pyridin-2-yl)ethylcarbamoyl)-2,3,3a,4,5,5a,5b,6,7,7a,8,11,11a,11b,12,13,13a,13b-octadecahydro-1H-cyclopenta[a]chrysen-9-yl)benzoic acid]: the EC50 is under 100 nM.

On to `C=C(C)[C@@H]1CC[C@]2(C(=O)N[C@@H](CN(C)C)C(=O)O)CC[C@]3(C)[C@H](CC[C@@H]4[C@@]5(C)CC=C(c6ccc(C(=O)O)cc6)C(C)(C)[C@@H]5CC[C@]43C)[C@@H]12` [Example 65, 4-((1R,3aS,5aR,5bR,7aR,11aS,11bR,13aR,13bR)-3a-((S)-1-carboxy-2-(dimethylamino)ethylcarbamoyl)-5a,5b,8,8,11a-pentamethyl-1-(prop-1-en-2-yl)-2,3,3a,4,5,5a,5b,6,7,7a,8,11,11a,11b,12,13,13a,13b-octadecahydro-1H-cyclopenta[a]chrysen-9-yl)benzoic acid], for which the EC50 is under 100 nM.

As for `C=C(C)[C@@H]1CC[C@]2(C(=O)NCCN3CCS(=O)(=O)CC3)CC[C@]3(C)[C@H](CC[C@@H]4[C@@]5(C)CC=C(c6ccc(C(=O)O)cc6F)C(C)(C)[C@@H]5CC[C@]43C)[C@@H]12` [Example 120, 4-((1R,3aS,5aR,5bR,7aR,11aS,11bR,13aR,13bR)-3a-((2-(1,1-dioxido-4-thiomorpholinyl)ethyl)carbamoyl)-1-isopropenyl-5a,5b,8,8,11a-pentamethyl-2,3,3a,4,5,5a,5b,6,7,7a,8,11,11a,11b,12,13,13a,13b-octadecahydro-1H-cyclopenta[a]chrysen-9-yl)-3-fluorobenzoic acid], the EC50 is under 100 nM.

`CC(C)[C@@H]1CC[C@]2(C(=O)NCCN(C)C)CC[C@]3(C)[C@H](CC[C@@H]4[C@@]5(C)CC=C(c6ccc(C(=O)O)cc6)C(C)(C)[C@@H]5CC[C@]43C)[C@@H]12` [Example 78, 4-((1S,3aS,5aR,5bR,7aR,11aS,11bR,13aR,13bR)-3a-(2-(dimethylamino)ethylcarbamoyl)-1-isopropyl-5a,5b,8,8,11a-pentamethyl-2,3,3a,4,5,5a,5b,6,7,7a,8,11,11a,11b,12,13,13a,13b-octadecahydro-1H-cyclopenta[a]chrysen-9-yl)benzoic acid]: the EC50 is under 100 nM.

For `C=C(C)[C@@H]1CC[C@]2(C(=O)NCCNCC(=O)O)CC[C@]3(C)[C@H](CC[C@@H]4[C@@]5(C)CC=C(c6ccc(C(=O)O)cc6)C(C)(C)[C@@H]5CC[C@]43C)[C@@H]12` [Example 81, 4-((1R,3aS,5aR,5bR,7aR,11aS,11bR,13aR,13bR)-3a-(2-(carboxymethylamino)ethylcarbamoyl)-5a,5b,8,8,11a-pentamethyl-1-(prop-1-en-2-yl)-2,3,3a,4,5,5a,5b,6,7,7a,8,11,11a,11b,12,13,13a,13b-octadecahydro-1H-cyclopenta[a]chrysen-9-yl)benzoic acid], the EC50 was under 100 nM.

As for `C=C(C)[C@@H]1CC[C@]2(C(=O)NCCN(C)C(C)=O)CC[C@]3(C)[C@H](CC[C@@H]4[C@@]5(C)CC=C(c6ccc(C(=O)O)cc6)C(C)(C)[C@@H]5CC[C@]43C)[C@@H]12` [Example 75, 4-((1R,3aS,5aR,5bR,7aR,11aS,11bR,13aR,13bR)-5a,5b,8,8,11a-pentamethyl-3a-(2-(N-methylacetamido)ethylcarbamoyl)-1-(prop-1-en-2-yl)-2,3,3a,4,5,5a,5b,6,7,7a,8,11,11a,11b,12,13,13a,13b-octadecahydro-1H-cyclopenta[a]chrysen-9-yl)benzoic acid], the EC50 was under 100 nM.

As to `C=C(C)[C@@H]1CC[C@]2(C(=O)NS(=O)(=O)N(C)C)CC[C@]3(C)[C@H](CC[C@@H]4[C@@]5(C)CC=C(c6ccc(C(=O)O)cc6)C(C)(C)[C@@H]5CC[C@]43C)[C@@H]12` [Example 7, 4-((1R,3aS,5aR,5bR,7aR,11aS,11bR,13aR,13bR)-3a-(N,N-dimethylsulfamoylcarbamoyl)-5a,5b,8,8,11a-pentamethyl-1-(prop-1-en-2-yl)-2,3,3a,4,5,5a,5b,6,7,7a,8,11,11a,11b,12,13,13a,13b-octadecahydro-1H-cyclopenta[a]chrysen-9-yl)benzoic acid], the EC50 is under 100 nM.

For the compound `C=C(C)[C@@H]1CC[C@]2(C(=O)NCCC(=O)O)CC[C@]3(C)[C@H](CC[C@@H]4[C@@]5(C)CC=C(c6ccc(C(=O)O)cc6)C(C)(C)[C@@H]5CC[C@]43C)[C@@H]12` [Example 25, 4-((1R,3aS,5aR,5bR,7aR,11aS,11bR,13aR,13bR)-3a-(2-carboxyethylcarbamoyl)-5a,5b,8,8,11a-pentamethyl-1-(prop-1-en-2-yl)-2,3,3a,4,5,5a,5b,6,7,7a,8,11,11a,11b,12,13,13a,13b-octadecahydro-1H-cyclopenta[a]chrysen-9-yl)benzoic acid], the EC50 is under 100 nM.

Take `C=C(C)[C@@H]1CC[C@]2(C(=O)NCc3nc4ccccc4[nH]3)CC[C@]3(C)[C@H](CC[C@@H]4[C@@]5(C)CC=C(c6ccc(C(=O)O)cc6)C(C)(C)[C@@H]5CC[C@]43C)[C@@H]12` [Example 40, 4-((1R,3aS,5aR,5bR,7aR,11aS,11bR,13aR,13bR)-3a-((1H-benzo[d]imidazol-2-yl)methylcarbamoyl)-5a,5b,8,8,11a-pentamethyl-1-(prop-1-en-2-yl)-2,3,3a,4,5,5a,5b,6,7,7a,8,11,11a,11b,12,13,13a,13b-octadecahydro-1H-cyclopenta[a]chrysen-9-yl)benzoic acid]: the EC50 was under 100 nM.
